Converted amounts (≈) assume the structure as drawn.
Tested on: S. aureus 29213
Assay: MIC by broth microdilution (NCCLS), S. aureus 29213
Type: cell-based
Details: Staphylococcus aureus, strain S. aureus 29213, cation-adjusted Mueller-Hinton Broth, pH 7.2-7.3
Procedure: These assays have been performed following the description given in “Methods for dilution Antimicrobial Susceptibility Tests for Bacteria that Grow Aerobically, 4th ed.; Approved standard: NCCLS Document M7-A4; National Committee for Clinical Laboratory Standards: Villanova, Pa., USA, 1997”. Minimal inhibitory concentrations (MICs; mg/l) were determined in cation-adjusted Mueller-Hinton Broth (BBL) by a microdilution method following NCCLS guidelines (National Committee for Clinical Laboratory Standards. Methods for Dilution Antimicrobial Susceptibility). The pH of the test medium was 7.2-7.3.

MIC | SMILES
≤ 0.063 µg/mL | CCC(=O)N(CCCc1ccnc2ccc(OC)nc12)C[C@@H]1CN(c2ccc3c(c2)NC(=O)CS3)C(=O)O1 [Example 38, N-[3-(6-methoxy-[1,5]naphthyridin-4-yl)-propyl]-N-[(R)-2-oxo-3-(3-oxo-3,4-dihydro-2H-benzo[1,4]thiazin-6-yl)-oxazolidin-5-ylmethyl]-propionamide]
≤ 0.063 µg/mL | COC(=O)c1ccc(CNCCCC2CN(c3ccc4c(c3)NC(=O)CS4)C(=O)O2)c2nc(OC)ccc12 (racemic) [Example 156, rac-2-methoxy-8-({3-[2-oxo-3-(3-oxo-3,4-dihydro-2H-benzo[1,4]thiazin-6-yl)-oxazolidin-5-yl]-propylamino}-methyl)-quinoline-5-carboxylic acid methyl ester]
≤ 0.063 µg/mL | COc1cnc2cccc(CCCNC[C@@H]3CN(c4ccc5c(c4)NC(=O)CS5)C(=O)O3)c2c1 [Example 35, 6-((R)-5-{[3-(3-methoxy-quinolin-5-yl)-propylamino]-methyl}-2-oxo-oxazolidin-3-yl)-4H-benzo[1,4]thiazin-3-one]
≤ 0.063 µg/mL | COc1cnc2cccc(C(O)CN(C)C[C@@H](O)[C@H]3CN(c4ccc5c(c4)OCCO5)C(=O)O3)c2n1 (relative stereo) [Example 100, (R*)-3-(2,3-dihydro-benzo[1,4]dioxin-6-yl)-(R*)-5-(1-hydroxy-2-{[(RS)-2-hydroxy-2-(3-methoxy-quinoxalin-5-yl)-ethyl]-methyl-amino}-ethyl)-oxazolidin-2-one]
0.125 µg/mL (≈ 0.274 µM) | N#Cc1ccc2cccc(/C=C/C(=O)NC[C@@H]3CN(c4ccc5c(c4)OCCO5)C(=O)O3)c2n1 [Example 16, (E)-3-(2-cyano-quinolin-8-yl)-N-[(R)-3-(2,3-dihydro-benzo[1,4]dioxin-6-yl)-2-oxo-oxazolidin-5-ylmethyl]-acrylamide]
≤ 0.063 µg/mL | COc1ccc2ncc(F)c(CCCN(C[C@H](O)CO)C[C@@H]3CN(c4ccc5c(c4)OCCO5)C(=O)O3)c2n1 [Example 135, (R)-3-(2,3-dihydro-benzo[1,4]dioxin-6-yl)-5-({((S)-2,3-dihydroxy-propyl)-[3-(3-fluoro-6-methoxy-[1,5]naphthyridin-4-yl)-propyl]-amino}-methyl)-oxazolidin-2-one]
0.125 µg/mL (≈ 0.226 µM) | COCCOc1ccc(CNCCCC2CN(c3ccc4c(c3)NC(=O)CS4)C(=O)O2)c2nc(OC)cnc12 (racemic) [Example 157, rac-6-[5-(3-{[3-methoxy-8-(2-methoxy-ethoxy)-quinoxalin-5-ylmethyl]-amino}-propyl)-2-oxo-oxazolidin-3-yl]-4H-benzo[1,4]thiazin-3-one]
≤ 0.063 µg/mL | COc1cnc2cccc(CN(C)C(=O)CCC3CN(c4ccc5c(c4)OCCO5)C(=O)O3)c2n1 (racemic) [Example 110, rac-3-[3-(2,3-dihydro-benzo[1,4]dioxin-6-yl)-2-oxo-oxazolidin-5-yl]-N-(3-methoxy-quinoxalin-5-ylmethyl)-N-methyl-propionamide]
≤ 0.063 µg/mL | COc1cnc2cccc(/C=C/C(=O)NC[C@@H]3CN(c4ccc5c(c4)OCCO5)C(=O)O3)c2n1 [Example 5, (E)-N-[(R)-3-(2,3-dihydro-benzo[1,4]dioxin-6-yl)-2-oxo-oxazolidin-5-ylmethyl]-3-(3-methoxy-quinoxalin-5-yl)-acrylamide]
≤ 0.063 µg/mL | COc1ccc2nccc(CC[C@@H](O)CC[C@@H]3CN(c4ccc5c(c4)NC(=O)CS5)C(=O)O3)c2n1 (racemic) [Example 122, 6-{(RS)-5-[(RS)-3-hydroxy-5-(6-methoxy-[1,5]naphthyridin-4-yl)-pentyl]-2-oxo-oxazolidin-3-yl}-4H-benzo[1,4]thiazin-3-one]
≤ 0.063 µg/mL | COc1ccc2nccc(NCCNC[C@@H]3CN(c4ccc5c(c4)NC(=O)CS5)C(=O)O3)c2n1 [Example 201, 6-((R)-5-{[2-(6-methoxy-[1,5]naphthyridin-4-ylamino)-ethylamino]-methyl}-2-oxo-oxazolidin-3-yl)-4H-benzo[1,4]thiazin-3-one]
≤ 0.063 µg/mL | COc1ccc2ncc(F)c(C(O)CCCCC3CN(c4ccc5c(c4)OCCO5)C(=O)O3)c2n1 (stereo not shown) [Example 62, 3-(2,3-dihydro-benzo[1,4]dioxin-6-yl)-5-[5-(3-fluoro-6-methoxy-[1,5]naphthyridin-4-yl)-5-hydroxy-pentyl]-oxazolidin-2-one]
≤ 0.063 µg/mL | COc1ccc2ncc(F)c(CNC[C@H](O)[C@@H](O)[C@@H]3CN(c4ccc5c(c4)OCCO5)C(=O)O3)c2c1 [Example 181, (S)-3-(2,3-dihydro-benzo[1,4]dioxin-6-yl)-5-{(1R,2S)-3-[(3-fluoro-6-methoxy-quinolin-4-ylmethyl)-amino]-1,2-dihydroxy-propyl}-oxazolidin-2-one]

— patent publication US8114867B2, “Oxazolidinone antibiotic derivatives” (Actelion Pharmaceuticals Ltd, priority 2007, dated 2012)
